Experimental data published in US9422285B2, “Substituted pyrazolo[1,5-A]-pyridine-3-carboxamides and use thereof” (Bayer Pharma Aktiengesellschaft, priority 2014, dated 2016).

These molecules were tested against T1, recombinant guanylate cyclase reporter cell line (Rattus norvegicus, UniProt P19686+P20595) (assay: Effect on a recombinant guanylate cyclase reporter cell line (B-2)). Conditions: in some cases mean values for individual determinations.
T1 construct: expressed in transfected cells
T1 sequence (P19686 1-690): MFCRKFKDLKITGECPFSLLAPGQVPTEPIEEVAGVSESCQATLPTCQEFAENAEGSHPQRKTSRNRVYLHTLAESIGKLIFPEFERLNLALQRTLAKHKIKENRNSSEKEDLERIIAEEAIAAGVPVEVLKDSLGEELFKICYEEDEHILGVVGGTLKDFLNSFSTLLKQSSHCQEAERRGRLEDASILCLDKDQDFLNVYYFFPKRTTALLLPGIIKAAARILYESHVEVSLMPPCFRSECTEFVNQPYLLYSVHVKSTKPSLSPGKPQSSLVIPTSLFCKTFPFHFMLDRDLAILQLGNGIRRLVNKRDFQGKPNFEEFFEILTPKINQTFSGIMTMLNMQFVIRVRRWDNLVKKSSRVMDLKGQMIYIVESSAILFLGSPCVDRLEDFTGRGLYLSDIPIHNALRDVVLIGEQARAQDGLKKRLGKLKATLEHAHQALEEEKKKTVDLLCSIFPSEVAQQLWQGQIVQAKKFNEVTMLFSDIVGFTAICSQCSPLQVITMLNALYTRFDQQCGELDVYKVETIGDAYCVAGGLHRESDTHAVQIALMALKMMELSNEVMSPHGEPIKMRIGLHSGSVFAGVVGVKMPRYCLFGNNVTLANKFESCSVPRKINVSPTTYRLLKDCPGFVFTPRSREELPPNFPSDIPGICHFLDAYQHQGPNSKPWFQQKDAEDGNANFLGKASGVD
T1 sequence (P20595 1-619): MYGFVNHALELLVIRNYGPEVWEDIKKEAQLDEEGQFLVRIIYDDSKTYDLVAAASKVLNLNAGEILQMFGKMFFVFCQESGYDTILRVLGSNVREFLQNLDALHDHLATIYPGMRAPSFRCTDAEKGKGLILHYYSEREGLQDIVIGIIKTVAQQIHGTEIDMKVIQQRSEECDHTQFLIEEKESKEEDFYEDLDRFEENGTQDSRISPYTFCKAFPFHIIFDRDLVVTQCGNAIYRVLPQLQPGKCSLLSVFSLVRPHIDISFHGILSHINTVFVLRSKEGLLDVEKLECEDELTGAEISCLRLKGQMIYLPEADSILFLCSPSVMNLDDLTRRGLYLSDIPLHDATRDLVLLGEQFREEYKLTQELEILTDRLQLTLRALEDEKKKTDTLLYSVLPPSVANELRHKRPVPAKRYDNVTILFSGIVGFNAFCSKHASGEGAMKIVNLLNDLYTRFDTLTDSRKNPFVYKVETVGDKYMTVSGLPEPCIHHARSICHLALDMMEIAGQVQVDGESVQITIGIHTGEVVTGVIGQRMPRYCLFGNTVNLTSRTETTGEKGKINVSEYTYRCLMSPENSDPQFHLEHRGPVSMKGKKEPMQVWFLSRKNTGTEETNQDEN
Format: cell-based
Procedure: B-2. Effect on a Recombinant Guanylate Cyclase Reporter Cell Line
The cellular effect of the inventive compounds is determined using a recombinant guanylate cyclase reporter cell line, as described in F. Wunder et al., Anal. Biochem. 339, 104-112 (2005).
Representative MEC values (MEC=minimum effective concentration) for the inventive compounds are shown in the table below (in some cases as mean values for individual determinations): […]
For `COCC(C)(N)CNC(=O)c1c(C)nn2c(OCc3c(F)cccc3F)cc(C)cc12` (racemic) [Example 97, rac-N-(2-Amino-3-methoxy-2-methylpropyl)-7-[(2,6-difluorobenzyl)oxy]-2,5-dimethylpyrazolo[1,5-a]pyridine-3-carboxamide], the “MEC (minimum effective concentration)” value was 1.0 µM. In the case of `COc1ccc(CC(C)(N)CNC(=O)c2c(C)nn3c(OCc4c(F)cccc4F)cc(C)cc23)cc1` (racemic) [Example 99, rac-N-[2-Amino-3-(4-methoxyphenyl)-2-methylpropyl]-7-[(2,6-difluorobenzyl)oxy]-2,5-dimethylpyrazolo[1,5-a]pyridine-3-carboxamide], the “MEC (minimum effective concentration)” value is reported as 0.1 µM. In the case of `Cc1cc(OCc2c(F)cccc2F)n2nc(C)c(C(=O)NCC3CNC(=O)O3)c2c1` (racemic) [Example 100, rac-7-[(2,6-Difluorobenzyl)oxy]-2,5-dimethyl-N-[(2-oxo-1,3-oxazolidin-5-yl)methyl]pyrazolo[1,5-a]pyridine-3-carboxamide], the “MEC (minimum effective concentration)” value is reported as 10 µM. `COc1ccc2c(c1)C(NC(=O)c1c(C)nn3c(OCc4c(F)cccc4F)cc(C)cc13)CCN2` (racemic) [Example 102, rac-7-[(2,6-Difluorobenzyl)oxy]-N-(6-methoxy-1,2,3,4-tetrahydroquinolin-4-yl)-2,5-dimethylpyrazolo[1,5-a]pyridine-3-carboxamide] was tested, and the “MEC (minimum effective concentration)” value was 1.0 µM. In the case of `Cc1cc(OCc2c(F)cccc2F)n2nc(C)c(C(=O)NCC(N)c3ccc4ncccc4c3)c2c1` (racemic) [Example 103, rac-N-[2-Amino-2-(quinolin-6-yl)ethyl]-7-[(2,6-difluorobenzyl)oxy]-2,5-dimethylpyrazolo[1,5-a]pyridine-3-carboxamide], the “MEC (minimum effective concentration)” value is reported as 10 µM. In the case of `Cc1cc(OCc2c(F)cccc2F)n2nc(C)c(C(=O)NCC(N)c3ccc(C)o3)c2c1` (racemic) [Example 104, rac-N-[2-Amino-2-(5-methyl-2-furyl)ethyl]-7-[(2,6-difluorobenzyl)oxy]-2,5-dimethylpyrazolo[1,5-a]pyridine-3-carboxamide], the “MEC (minimum effective concentration)” value is reported as 3.0 µM. In the case of `Cc1cc(OCc2c(F)cccc2F)n2nc(C)c(C(=O)NCC(N)c3cccc(C(F)(F)F)c3)c2c1` (racemic) [Example 105, rac-N-{2-Amino-2-[3-(trifluoromethyl)phenyl]ethyl}-7-[(2,6-difluorobenzyl)oxy]-2,5-dimethylpyrazolo[1,5-a]pyridine-3-carboxamide], the “MEC (minimum effective concentration)” value is reported as 3.0 µM. `Cc1cc(OCc2c(F)cccc2F)n2nc(C)c(C(=O)NCC(N)CC(F)(F)F)c2c1` (racemic) [Example 107, rac-N-(2-Amino-4,4,4-trifluorobutyl)-7-[(2,6-difluorobenzyl)oxy]-2,5-dimethylpyrazolo[1,5-a]pyridine-3-carboxamide] was tested, and the “MEC (minimum effective concentration)” value was 3.0 µM. For `Cc1cc(OCc2c(F)cccc2F)n2nc(C)c(C(=O)NC3COc4ccccc43)c2c1` (racemic) [Example 108, rac-7-[(2,6-Difluorobenzyl)oxy]-N-(2,3-dihydro-1-benzofur-3-yl)-2,5-dimethylpyrazolo[1,5-a]pyridine-3-carboxamide], the “MEC (minimum effective concentration)” value was 0.3 µM. In the case of `Cc1cc(OCc2c(F)cccc2F)n2nc(C)c(C(=O)NCC(C)(N)C(F)(F)F)c2c1` (racemic) [Example 109, rac-N-(2-Amino-3,3,3-trifluoro-2-methylpropyl)-7-[(2,6-difluorobenzyl)oxy]-2,5-dimethylpyrazolo[1,5-a]pyridine-3-carboxamide], the “MEC (minimum effective concentration)” value is reported as 1.0 µM. For `Cc1cc(OCc2c(F)cccc2F)n2nc(C)c(C(=O)NCC(N)c3ccc4c(c3)OCCO4)c2c1` (racemic) [Example 110, rac-N-[2-Amino-2-(2,3-dihydro-1,4-benzodioxin-6-yl)ethyl]-7-[(2,6-difluorobenzyl)oxy]-2,5-dimethylpyrazolo[1,5-a]pyridine-3-carboxamide], the “MEC (minimum effective concentration)” value was 3.0 µM. `Cc1cc(OCc2c(F)cccc2F)n2nc(C)c(C(=O)NCC(N)c3csc4ccccc34)c2c1` (racemic) [Example 112, rac-N-[2-Amino-2-(1-benzothiophen-3-yl)ethyl]-7-[(2,6-difluorobenzyl)oxy]-2,5-dimethylpyrazolo[1,5-a]pyridine-3-carboxamide] was tested, and the “MEC (minimum effective concentration)” value was 10 µM. With `COC(=O)c1cccc(C(N)CNC(=O)c2c(C)nn3c(OCc4c(F)cccc4F)cc(C)cc23)c1` (racemic) [Example 114, rac-Methyl 3-{1-amino-2-[({7-[(2,6-difluorobenzyl)oxy]-2,5-dimethylpyrazolo[1,5-a]pyridin-3-yl}carbonyl)amino]ethyl}benzoate] the “MEC (minimum effective concentration)” value was 10 µM. In the case of `CC=CCC(N)CNC(=O)c1c(C)nn2c(OCc3c(F)cccc3F)cc(C)cc12` (racemic) [Example 115, rac-N-[2-Aminohex-4-en-1-yl]-7-[(2,6-difluorobenzyl)oxy]-2,5-dimethylpyrazolo[1,5-a]pyridine-3-carboxamide], the “MEC (minimum effective concentration)” value is reported as 0.3 µM. `Cc1cc(OCc2c(F)cccc2F)n2nc(C)c(C(=O)NCC(N)c3cccc(OC(F)F)c3)c2c1` (racemic) [Example 116, rac-N-{2-Amino-2-[3-(difluoromethoxy)phenyl]ethyl}-7-[(2,6-difluorobenzyl)oxy]-2,5-dimethylpyrazolo[1,5-a]pyridine-3-carboxamide] was tested, and the “MEC (minimum effective concentration)” value was 3.0 µM. For `Cc1cc(OCc2c(F)cccc2F)n2nc(C)c(C(=O)NC(CN)c3ccc4c(c3)OCO4)c2c1` (racemic) [Example 120, rac-N-[2-Amino-1-(1,3-benzodioxol-5-yl)ethyl]-7-[(2,6-difluorobenzyl)oxy]-2,5-dimethylpyrazolo[1,5-a]pyridine-3-carboxamide], the “MEC (minimum effective concentration)” value was 1.0 µM. For `COc1cccc(C(CN)NC(=O)c2c(C)nn3c(OCc4c(F)cccc4F)cc(C)cc23)c1` (racemic) [Example 123, rac-N-[2-Amino-1-(3-methoxyphenyl)ethyl]-7-[(2,6-difluorobenzyl)oxy]-2,5-dimethylpyrazolo[1,5-a]pyridine-3-carboxamide], the “MEC (minimum effective concentration)” value was 1.0 µM. In the case of `Cc1cc(OCc2c(F)cccc2F)n2nc(C)c(C(=O)NC(CN)c3cccc(Br)c3)c2c1` (racemic) [Example 126, rac-N-[2-Amino-1-(3-bromphenyl)ethyl]-7-[(2,6-difluorobenzyl)oxy]-2,5-dimethylpyrazolo[1,5-a]pyridine-3-carboxamide], the “MEC (minimum effective concentration)” value is reported as 1.0 µM. In the case of `Cc1cc(OCc2c(F)cccc2F)n2nc(C)c(C(=O)NC3CCCCNC3)c2c1` (racemic) [Example 127, rac-N-(Azepan-3-yl)-7-[(2,6-difluorobenzyl)oxy]-2,5-dimethylpyrazolo[1,5-a]pyridine-3-carboxamide], the “MEC (minimum effective concentration)” value is reported as 0.3 µM. `Cc1cc(OCc2c(F)cccc2F)n2nc(C)c(C(=O)NC3CCC(N)C3)c2c1` (racemic) [Example 130, rac-N-(3-Aminocyclopentyl)-7-[(2,6-difluorobenzyl)oxy]-2,5-dimethylpyrazolo[1,5-a]pyridine-3-carboxamide] was tested, and the “MEC (minimum effective concentration)” value was 3.0 µM. With `Cc1cc(OCc2c(F)cccc2F)n2nc(C)c(C(=O)NC(CN)c3cccc(OC(F)(F)F)c3)c2c1` (racemic) [Example 132, rac-N-{2-Amino-1-[3-(trifluoromethoxy)phenyl]ethyl}-7-[(2,6-difluorobenzyl)oxy]-2,5-dimethylpyrazolo[1,5-a]pyridine-3-carboxamide] the “MEC (minimum effective concentration)” value was 1.0 µM. For `Cc1cc(OCc2c(F)cccc2F)n2nc(C)c(C(=O)NC(C#N)c3ccc(Cl)cc3)c2c1` (racemic) [Example 134, rac-N-[(4-Chlorophenyl)(cyano)methyl]-7-[(2,6-difluorobenzyl)oxy]-2,5-dimethylpyrazolo[1,5-a]pyridine-3-carboxamide], the “MEC (minimum effective concentration)” value was 0.3 µM. `Cc1cc(OCc2c(F)cccc2F)n2nc(C)c(C(=O)NCC(N)c3cnn(C)c3)c2c1` (racemic) [Example 136, rac-N-[2-Amino-2-(1-methyl-1H-pyrazol-4-yl)ethyl]-7-[(2,6-difluorobenzyl)oxy]-2,5-dimethylpyrazolo[1,5-a]pyridine-3-carboxamide] was tested, and the “MEC (minimum effective concentration)” value was 10 µM.
